Among the test systems are MCF7 breast; OVCAR-3 ovarian; A498 renal; SW-620 colon; MDA-N; A549 NSCLC; NCI-H460 lung; MOLT-4 leukemia; MDA-MB-435; NCI-H23 lung; CAKI-1 renal.
Assay in all cases: growth of human tumour cells (NCI), 48 h

Molecules are shown by their SMILES.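 These data come from cells grown in 96-well plates and exposed to compound for 48 hours at five concentrations. TGI marks complete inhibition of growth.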

As for `CCOC(=O)c1cc2c([nH]1)c(O)cc1c2ccn1Cc1ccccc1`, the TGI turned out to be 44.4 µM with MCF7 breast; 31.6 µM in the assay on OVCAR-3 ovarian; 82.4 µM in the assay with A498 renal; 40.6 µM in the assay with SW-620 colon; 29.5 µM with MDA-N; 30.3 µM with A549 NSCLC. The TGI was determined as 34.7 µM with NCI-H460 lung; 14.1 µM with MOLT-4 leukemia; 31 µM in the assay on MDA-MB-435; 28.1 µM with NCI-H23 lung; 36.8 µM in the assay with CAKI-1 renal.
Regarding `Ic1ccc2c(c1)N(c1ccccc1)c1cc(N=c3ccc4nc5ccc(I)cc5n(-c5ccccc5)c-4c3)ccc1N2`, the TGI in the assay on MCF7 breast is greater than 100 µM; in the assay on OVCAR-3 ovarian, 16.1 µM; in the assay on A498 renal, greater than 100 µM; in the assay with SW-620 colon, greater than 100 µM; with MDA-N, greater than 100 µM; in the assay with A549 NSCLC, greater than 100 µM. The TGI in the assay on NCI-H460 lung was greater than 100 µM; with MOLT-4 leukemia, greater than 100 µM; in the assay with MDA-MB-435 it was 94 µM; in the assay with NCI-H23 lung it was greater than 100 µM; in the assay on CAKI-1 renal it was greater than 100 µM.
Turning to `COc1ccc2c(c1)-c1nc(=S)n(CCCN(C)C)c3ccc([N+](=O)[O-])c(c13)N2`, the TGI in the assay with MCF7 breast was 3.01 µM; with OVCAR-3 ovarian, 18.5 µM; in the assay with A498 renal, 22.2 µM; in the assay on SW-620 colon it was 7.18 µM; in the assay on MDA-N, 2.2 µM; in the assay with A549 NSCLC, 14.8 µM. In addition, the TGI with NCI-H460 lung amounted to 10.3 µM; in the assay with MOLT-4 leukemia it was 2.15 µM; with MDA-MB-435 it was 16.7 µM; in the assay with NCI-H23 lung, 4.31 µM; in the assay on CAKI-1 renal, 19.8 µM.
With `NCCCCC(NC(=O)C(N)Cc1ccc(O)cn1)C(=O)O` (stereo not drawn), the TGI with MCF7 breast, with OVCAR-3 ovarian, in the assay with A498 renal, in the assay on SW-620 colon, with MDA-N and in the assay with A549 NSCLC was greater than 100 µM each time. Further, the TGI with NCI-H460 lung, in the assay with MOLT-4 leukemia, in the assay with MDA-MB-435, in the assay with NCI-H23 lung and with CAKI-1 renal was greater than 100 µM each time.
As to `O=S(=O)(SC1=NCCN1)c1ccc2ccccc2c1`, the TGI with MCF7 breast is greater than 100 µM; with OVCAR-3 ovarian, 97.2 µM; in the assay on A498 renal, greater than 100 µM; with SW-620 colon, 43.6 µM; with MDA-N, 43.9 µM; in the assay on A549 NSCLC, 86.3 µM. Further, the TGI is 42.8 µM in the assay on NCI-H460 lung; 56.8 µM in the assay with MOLT-4 leukemia; 42.8 µM in the assay on MDA-MB-435; 61.8 µM in the assay on NCI-H23 lung; greater than 100 µM in the assay with CAKI-1 renal.
Take `O=c1oc2ccccc2cc1-c1csc(Nc2ccc(F)cc2)n1`: the TGI came out at 15.5 µM in the assay on MCF7 breast; 19.6 µM in the assay on OVCAR-3 ovarian; 5.09 µM with A498 renal; 15.3 µM with SW-620 colon; 16.5 µM with MDA-N; 3.23 µM with A549 NSCLC. Moreover, the TGI is 22.3 µM with NCI-H460 lung; greater than 25.4 µM in the assay on MOLT-4 leukemia; 17 µM in the assay on MDA-MB-435; 11 µM in the assay on NCI-H23 lung; 10.6 µM in the assay with CAKI-1 renal.
Consider `CCOC(=O)CCCNC(=O)CCCCC(=O)N(C)C`, for which the TGI in the assay with MCF7 breast, in the assay on OVCAR-3 ovarian, with A498 renal, with SW-620 colon, with MDA-N and in the assay on A549 NSCLC was greater than 100 µM each time. Also, the TGI in the assay on NCI-H460 lung, with MOLT-4 leukemia, with MDA-MB-435, with NCI-H23 lung and in the assay with CAKI-1 renal was greater than 100 µM in each case.
For `O=C1CN(C(=O)C2CCCN2C(=O)C2CCCN2)C(=O)CN1` (stereo not drawn), the TGI in the assay on MCF7 breast, in the assay with OVCAR-3 ovarian, with A498 renal, with SW-620 colon, with MDA-N and in the assay with A549 NSCLC was greater than 100 µM each time. In addition, the TGI in the assay with NCI-H460 lung, in the assay on MOLT-4 leukemia, with MDA-MB-435, in the assay on NCI-H23 lung and with CAKI-1 renal was greater than 100 µM in each case.
For the compound `c1ccc(-c2nc3ccccc3n3c(CN4CCCCC4)nnc23)cc1`, the TGI in the assay with MCF7 breast, in the assay on OVCAR-3 ovarian, in the assay with A498 renal, in the assay on SW-620 colon, in the assay with MDA-N and in the assay on A549 NSCLC was greater than 100 µM each time. The TGI with NCI-H460 lung, in the assay with MOLT-4 leukemia, in the assay on MDA-MB-435 and in the assay on CAKI-1 renal was greater than 100 µM throughout.
Consider `O=c1c2ccccc2[nH]c2c(Cl)cc(Cl)c(NC3CCCCC3)c12`, for which the TGI was 76.2 µM with MCF7 breast; 28 µM in the assay on OVCAR-3 ovarian; 43.3 µM in the assay on A498 renal; 49 µM in the assay with SW-620 colon; 79.1 µM in the assay with MDA-N; greater than 100 µM with A549 NSCLC. Further, the TGI in the assay on MOLT-4 leukemia came to 86.9 µM; in the assay with MDA-MB-435, 43.5 µM; in the assay on NCI-H23 lung, 36.8 µM; in the assay with CAKI-1 renal, 83.2 µM.
Turning to `CCOCc1c(C)cc(C)c(C2C(C(=O)c3ccccc3)N3c4ccccc4C=CC3C2(C#N)C(=O)OCC)c1C` (stereo not drawn), the TGI was greater than 100 µM in the assay with MCF7 breast; greater than 100 µM with OVCAR-3 ovarian; greater than 100 µM in the assay on A498 renal; greater than 100 µM in the assay with SW-620 colon; 87 µM in the assay on MDA-N; greater than 100 µM in the assay with NCI-H460 lung. The TGI in the assay on MOLT-4 leukemia, with MDA-MB-435, with NCI-H23 lung and in the assay with CAKI-1 renal was greater than 100 µM each time.
For the compound `Cc1cc(S(=O)(=O)Nc2nc(N)n(-c3ccccn3)n2)c(S)cc1Cl`, the TGI in the assay on MCF7 breast, with OVCAR-3 ovarian, in the assay on A498 renal, in the assay with SW-620 colon, with MDA-N and in the assay on A549 NSCLC was greater than 100 µM in each case. For the same compound, the TGI with NCI-H460 lung, with MOLT-4 leukemia, with MDA-MB-435 and with CAKI-1 renal was greater than 100 µM throughout.
Regarding `COC(=O)/C=C(/C=C1/C(C#N)=C(N)N(c2ccc(Cl)cc2)C1(C)/C(=C/C(=O)OC)C(=O)OC)C(=O)OC` (stereo not drawn), the TGI in the assay with MCF7 breast, with OVCAR-3 ovarian, in the assay on A498 renal, in the assay on SW-620 colon, with MDA-N and in the assay on NCI-H460 lung was greater than 100 µM in each case. Also, the TGI in the assay on MOLT-4 leukemia, with MDA-MB-435, in the assay with NCI-H23 lung and in the assay with CAKI-1 renal was greater than 100 µM each time.

The values above are taken from PubChem BioAssay (NCI).
